Data: US9616058B2, “Potent selective LSD1 inhibitors and dual LSD1/MAO-B inhibitors for antiviral use” (Oryzon Genomics, S.A., priority 2010, dated 2017)

What was measured:
Type in all cases: biochemical
[1] = biological target: T1, Human recombinant monoamine oxidase MAO-A (Homo sapiens, UniProt P21397); assay: Monoamine oxidase assay (kynuramine fluorescence), MAO-A; conditions: Ki measured at Vmax/2
T1 construct: purchased Sigma Aldrich
T1 sequence (P21397 1-527): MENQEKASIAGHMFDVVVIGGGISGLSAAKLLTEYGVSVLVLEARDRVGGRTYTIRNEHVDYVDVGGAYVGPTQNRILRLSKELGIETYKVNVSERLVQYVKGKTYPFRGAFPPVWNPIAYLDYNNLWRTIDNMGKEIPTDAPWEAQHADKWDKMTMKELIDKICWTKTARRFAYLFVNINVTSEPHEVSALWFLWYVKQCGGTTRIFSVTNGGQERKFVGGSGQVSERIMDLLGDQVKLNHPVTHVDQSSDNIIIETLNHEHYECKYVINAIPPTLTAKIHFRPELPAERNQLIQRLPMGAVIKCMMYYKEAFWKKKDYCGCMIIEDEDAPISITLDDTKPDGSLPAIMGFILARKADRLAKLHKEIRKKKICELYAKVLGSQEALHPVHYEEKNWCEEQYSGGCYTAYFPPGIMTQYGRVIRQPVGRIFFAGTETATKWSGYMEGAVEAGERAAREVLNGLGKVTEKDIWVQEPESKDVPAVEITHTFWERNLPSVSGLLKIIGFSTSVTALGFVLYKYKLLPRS
Description: (§1) MOAs catalyze the oxidative deamination of 1°, 2′ and 3° amines.
(§2) The Ki of each inhibitor was measure at Vmax/2.

[2] = biological target: T2, Human recombinant monoamine oxidase MAO-B (Homo sapiens, UniProt P27338); assay: Monoamine oxidase assay (kynuramine fluorescence), MAO-B; conditions: Ki measured at Vmax/2
T2 construct: purchased Sigma Aldrich
T2 sequence (P27338 1-520): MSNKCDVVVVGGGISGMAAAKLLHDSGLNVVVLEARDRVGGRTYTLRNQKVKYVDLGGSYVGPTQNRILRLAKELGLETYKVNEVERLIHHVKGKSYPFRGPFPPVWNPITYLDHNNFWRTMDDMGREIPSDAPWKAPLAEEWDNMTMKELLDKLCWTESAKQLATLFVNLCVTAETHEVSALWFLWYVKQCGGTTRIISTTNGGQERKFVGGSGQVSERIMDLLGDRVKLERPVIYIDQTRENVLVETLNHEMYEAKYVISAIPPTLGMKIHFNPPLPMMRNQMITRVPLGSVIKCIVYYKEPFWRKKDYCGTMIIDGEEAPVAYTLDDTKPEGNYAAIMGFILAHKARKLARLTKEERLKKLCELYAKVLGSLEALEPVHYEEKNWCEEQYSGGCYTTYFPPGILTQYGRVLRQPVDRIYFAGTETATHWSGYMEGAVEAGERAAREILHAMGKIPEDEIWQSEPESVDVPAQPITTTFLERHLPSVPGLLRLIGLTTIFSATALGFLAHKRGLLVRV
Description: as §1, §2

[3] = biological target: T3, Human recombinant LSD1 protein (Homo sapiens, UniProt O60341); assay: LSD1 demethylase inhibition assay (Amplex Red peroxide/peroxidase-coupled); conditions: Ki (IC50) estimated at half of the maximum activity
T3 construct: purchased BPS Bioscience Inc
Description: The compounds of the invention can be tested for their ability to inhibit LSD1.
The conversion of the Amplex®.

| Ki [1] | Ki [2] | Ki [3] | Structure (SMILES) |
| --- | --- | --- | --- |
| ~10 µM |  |  | c1ccc(C2C[C@@H]2NCCNC2CC2)cc1 (some centres unmarked) [Compound 2(A)] |
| > 30 µM | > 30 µM | < 1 µM | c1ccc(C2C[C@@H]2NCCN2CCNCC2)cc1 (some centres unmarked) [1(B)] |
| 20 to 30 µM |  |  | NC(=O)CN[C@H]1CC1c1ccc(OCc2cc(F)cc(F)c2)cc1 (some centres unmarked) [2(B)] |
| > 40 µM | > 40 µM | < 1 µM | N[C@@H]1CCN(CCN[C@H]2CC2c2ccccc2)C1 (some centres unmarked) [1(A)] |
